Results from ChEMBL document CHEMBL3045774, “Viridepyronone, a new antifungal 6-substituted 2H-pyran-2-one produced by Trichoderma viride” (2003).
≈ marks a conversion by molar mass, not a printed value. Calls of active or inactive are those of the source. The calls are words filed in the database; no cut-off is given here.

Columns and labels:
[1] = system: Athelia rolfsii; assay: Antifungal activity against Athelia rolfsii assessed as growth inhibition after 3 days; format: functional; conditions: Agroathelia rolfsii, 72 h
[2] = system: Athelia rolfsii; assay: Antifungal activity against Athelia rolfsii assessed as mycelial growth inhibition at 246 ug/mL after 3 days; format: functional, organism-based; conditions: Agroathelia rolfsii
[3] = system: Athelia rolfsii; assay: Antifungal activity against Athelia rolfsii assessed as growth inhibition at 6.9 x 10^-2 M after 3 days by paper disk assay relative to control; format: functional; conditions: Agroathelia rolfsii, 72 h; read-out: GI

- MIC [1]: 196 µg/mL (≈ 1090 µM)
SMILES: CC(=O)CCCc1cccc(=O)o1 [VIRIDEPYRONONE]
- growth inhibition (GI) [2]: Active
- inhibition of growth at 69000 µM [3]: 48%
